Source: patent US6727059B1, “METHOD FOR CONTROLLING THE FIDELITY AND PROCESSIVITY OF REVERSE TRANSCRIPTASE BY INCORPORATION AND POLYMERIZATION OF NUCLEOTIDE ANALOGS ACCEPTED AS SUBSTRATES FOR THE REVERSE TRANSCRIPTION REACTION WITHOUT BLOCKING ITS ELONGATION” (priority 2002, dated 2004)

Tests used:
Assay type in all cases: biochemical
[1] = target: T1, HIV-1 reverse transcriptase (Human immunodeficiency virus type 1 group M subtype B, UniProt P04585); assay: Identification of termination sites of polymerization with base analogs, HIV-1 reverse transcriptase; details: pbs primer; for number of new termination sites appearing / termination rate with the analog compared to the normal dNTP, overall: analog replaces its normal dNTP; for termination rate with the analog compared to the normal dNTP, overall: each dNTP 500 μM, 30 min 37° C.
Source text: The termination sites and the termination rates at each site were studied in the presence of 4 natural dNTPs present in excess, or in the presence of three of these natural dNTPs, the fourth being replaced with an analog: dUTP as a replacement for dTTP, dITP and c7dGTP as a replacement for dGTP and, finally, c7dATP in place of dATP (FIGS. 1.2 and 1.3). These analogs affect the formation of the hydrogen bonds in the two grooves of the double helix.
(§1) The termination sites were identified during polymerization catalyzed by the HIV-1 reverse transcriptase and the Klenow fragment by changing one of the dNTPs for its base analog. dTTP was replaced with dUTP, dGTP was replaced with dITP or c7dGTP and dATP was replaced with c7dATP. In this study, the synthesis is primed with pbs.
(§2) The reaction begins by formation of the reaction complex between the matrix/primer labeled at the 5′ end (0.05 pmol) with the enzyme (0.01 U/μl) by incubation at 37° C. for 3 min for the 3 RTs and at 25° C. for the Klenow fragment. A solution containing the 3 dNTPs and one of the analogs, each at the final concentration of 500 μM, and trapping DNA (100:1:trapping DNA:matrix/cold primer) is then added. The use of trapping DNA makes it possible to prevent the reinitialization of the polymerization at the termination sites. In parallel, a control in the presence of the 4 “normal” dNTPs was carried out under reaction conditions identical to the reaction in the presence of analogs. The mixture is incubated for 30 min at 37° C. for the HIV-1 reverse transcriptase and at 25° C. for the Klenow fragment. The reaction is stopped by adding ⅓ volume of stop solution (v/v), and then the reaction products are loaded onto a denaturing 8 M urea 13% acrylamide gel. Position of the termination sites is identified by the co-migration of the sequencing products (Sanger method).
(§3) Each reaction was carried out 3 times; variations in the strength of the termination rates are observed, but they are small and less than 10%. For the HIV-1 reverse transcriptase and the Klenow fragment, the synthesis termination rates with the various analogs (black rods) as a function of the sequence are given in the presence of the termination rates obtained in the control reaction, i.e. in the presence of the “normal” bases (white rods).

[2] = target: T2, Klenow fragment of E.coli DNA-dependent DNA polymerase (Escherichia coli, UniProt P00582); assay: Identification of termination sites of polymerization with base analogs, Klenow fragment; details: pbs primer; for termination rate with the analog compared to the normal dNTP: analog replaces its normal dNTP, each dNTP 500 μM, 30 min 25° C., positions +20 to +55
T2 construct: the Klenow fragment of E.coli DNA-dependent DNA polymerase (KF)
Source text: These matrices were used for parallel studies of HIV-1 reverse transcriptase and of the Klenow fragment of E.coli DNA-dependent DNA polymerase (KF). There have been many studies relating to the fidelity and processivity of the Klenow fragment (Abbotts and Wilson, 1988; Lecomte and Ninio, 1987, 1988; Papanicolaou and Ripley, 1989 and 1991).
as §1, §2, §3
Overall, the presence of the base analogs reduces the efficiency of the Klenow fragment polymerization, making it difficult to detect termination sites beyond the position +55, and for this reason, we have represented, in the various figures which follow, only the termination sites located between position +20 and +55.

[3] = target: T1, HIV-1 reverse transcriptase; assay: Kinetics of misincorporation (error rate) in the minus A reaction with base analogs; details: absence of dATP; for error rate at the first misincorporation site opposite T-135, start of the kinetics: starting value
Source text: In order to understand the role of the three dNTPs present involved in the misincorporation subsequent to the absence of the fourth dNTP, dGTP and/or dCTP were replaced with dITP and dUTP, respectively, in the reaction minus A. dITP was chosen because I can pair with T and therefore compensate for the absence of A, and dUTP was chosen in order to assess the affect that the absence of the methyl of a T may have on the fidelity of incorporation of the neighboring pair. For this reason, we are interested not only in the sites and rates of misincorporations, but in the kinetics with which these misincorporations take place. The conditions most suited to the lack of fidelity of the HIV-RT were selected: use of the matrix+env (ppt primer) and absence of dATP (data not shown).
After hybridization of the ppt primer labeled at the 5′ end (1 pmol), with the matrix+env (2 pmol), the HIV-1 reverse transcriptase is added at the final concentration of 0.1 U/μl. Solutions containing dCTP, dGTP, dTTP (control), dCTP, dITP, dTTP or dCTP, dGTP, dUTP or dCTP, dITP, dUTP, each at the final concentration of 500 μM, were added to equivalent (¼ of the mixture) fractions. […] After denaturation at 92° C. for 5 min, the reaction products are loaded onto an 8M urea denaturing 13% acrylamide gel.
FIG. 4.4 represents the variation in the misincorporation rate in front of T-135 (matrix), the first misincorporation site, as a function of time and of the base analog used.

[4] = target: T1, HIV-1 reverse transcriptase; assay: Analysis of mismatches: restriction test and sequencing of mutated plasmids from the minus A reaction; details: for fidelity of the HIV-1 reverse transcriptase / profile of mutations: analog instead of normal dNTP
Protocol: Matrix/labeled primer (0.5 pmol), reverse transcriptase (0.04 U/μl) and the 3 dNTPs (500 μM final) were incubated for 30 min at 37° C., and then the dATP (500 μM final) was added and the incubation continued for 30 min at 37° C. The reaction is then stopped by adding EDTA at the concentration of 10 mM final. The reaction products are recovered after alcohol precipitation and digested with the Sac I enzyme. After denaturation at 90° C. for 3 min, the product is loaded onto a denaturing 10% acrylamide gel. After migration and auto-radiography, the 200-base bands are recovered on the gel and then purified. These fragments are amplified by PCR (15 cycles), cleaved with Mlu I and Bam H I and inserted into pBluescript SK+ppt by ligation with T4 DNA ligase, followed by transformation with XL-1 Blue.
The mutated plasmids are easily selected since they no longer have the restriction site recognized by the Nco I enzyme (see FIG. 4.5). In addition, the absence of enzymatic digestion with Sph I implies a double mutation.
The polymerization reaction was carried out in the absence of dATP, as for the reaction in the presence of the “natural” bases, but the dGTP was replaced with dITP or the dTTP was replaced by dUTP. After 30 min at 37° C. in the presence of the HIV-1 reverse transcriptase and of 3 of the 4 bases, the matrix/labeled primer is purified on a Sephadex G50 column, so as to eliminate the nucleotides which have not been incorporated, and in particular the dITP and dUTP which would modify the Sac I restriction site. The elongation is then continued for 30 min at 37° C. in the presence of the 4 natural dNTPs, at the final concentration of 500 μM, and of the enzyme (0.05 U/μl). After alcohol precipitation, digestion with the Sac I restriction enzyme and recovery of the 200-base band, a PCR is carried out under the same conditions as for the reaction in the presence of the “natural” bases. […]

[5] = matrix +env, ppt primer, dNTPs 500 μM each
[6] = 7 plasmids sequenced, minus A, dITP instead of dGTP
[7] = of 36 plasmids isolated, minus A, Nco I and Sph I digestion test
[8] = sequenced plasmids, absence of dATP and dGTP

T2 sequence (P00582 324-928): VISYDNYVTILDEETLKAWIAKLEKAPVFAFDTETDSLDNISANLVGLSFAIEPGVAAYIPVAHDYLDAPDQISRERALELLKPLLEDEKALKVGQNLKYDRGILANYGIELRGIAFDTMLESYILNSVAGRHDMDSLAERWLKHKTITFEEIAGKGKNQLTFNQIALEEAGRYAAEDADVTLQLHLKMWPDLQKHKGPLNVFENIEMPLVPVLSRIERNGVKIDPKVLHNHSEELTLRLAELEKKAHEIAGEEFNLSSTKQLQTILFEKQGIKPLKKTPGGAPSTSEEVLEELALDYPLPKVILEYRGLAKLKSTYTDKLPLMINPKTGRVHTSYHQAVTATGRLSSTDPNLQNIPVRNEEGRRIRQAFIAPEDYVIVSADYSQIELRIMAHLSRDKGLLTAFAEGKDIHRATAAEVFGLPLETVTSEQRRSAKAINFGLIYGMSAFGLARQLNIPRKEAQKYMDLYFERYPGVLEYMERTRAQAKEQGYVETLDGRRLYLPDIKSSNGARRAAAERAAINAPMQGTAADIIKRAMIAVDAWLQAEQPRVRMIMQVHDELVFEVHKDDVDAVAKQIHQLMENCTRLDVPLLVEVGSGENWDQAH

Nc1ncnc2c1ccn2[C@H]1C[C@H](O)[C@@H](COP(=O)(O)OP(=O)(O)OP(=O)(O)O)O1 [c7dATP]
number of new termination sites appearing ([1]; 500 μM): 3 sites
termination rate with the analog compared to the normal dNTP, overall [1]: little effect overall
decrease of the termination rate on A75 ([1]; c7dATP instead of dATP, 500 μM): ~2 fold
increase of termination strength opposite A41 ([1]; c7dATP instead of dATP, 500 μM): 7 ×
increase of termination strength opposite T76 ([1]; c7dATP instead of dATP, 500 μM): 2 ×
increase of the termination rate at A41 ([1]; c7dATP instead of dATP, 500 μM): ~7 fold
part of the elongation complexes stopped at new site T63 ([1]; c7dATP instead of dATP, 500 μM): half
termination rate on A35 ([1]; c7dATP instead of dATP, 500 μM): remains stable
termination rate with the analog compared to the normal dNTP [2]: increase in the termination rates in 3 waves

Nc1nc2c(ccn2C2CC(O)C(COP(=O)(O)OP(=O)(O)OP(=O)(O)O)O2)c(=O)[nH]1 (centres unmarked) [c7dGTP]
number of new termination sites appearing ([1]; 500 μM): 4 sites
termination rate with the analog compared to the normal dNTP, overall [1]: considerable increase at the start of elongation, and then a clear tendency toward decreasing the termination rate
decrease of the termination rate at other sites ([1]; c7dGTP instead of dGTP, 500 μM): up to 10 fold
decrease of the termination rate opposite C21 ([1]; c7dGTP instead of dGTP, 500 μM): 10%
decrease of the termination rate opposite C49 ([1]; c7dGTP instead of dGTP, 500 μM): 90%
increase of the termination rate at 6 of the 18 termination sites ([1]; c7dGTP instead of dGTP, 500 μM): up to 3.5 fold
termination rate with the analog compared to the normal dNTP [2]: All the stops on the sites at which the c7dGMP is incorporated into the polymerized strand are increased
decrease of the termination rate at C32 ([2]; c7dGTP instead of dGTP, 500 μM): 26%

O=c1[nH]cnc2c1ncn2[C@H]1C[C@H](O)[C@@H](COP(=O)(O)OP(=O)(O)OP(=O)(O)O)O1 [dITP]
decrease of the error rate observed with dGTP at the first misinsertion site ([3]; dITP instead of dGTP, after 45 min of incubation): ~50%
error rate at the first misincorporation site opposite T-135 after 10 min [3, 5]: 40%
error rate at the first misincorporation site opposite T-135, start of the kinetics [3, 5]: 0%
number of new termination sites appearing ([1]; 500 μM): Two
termination rate with the analog compared to the normal dNTP, overall [1]: higher
factor of increase in the termination rates of 10 sites ([1]; dITP instead of dGTP, 500 μM): ~4
termination strength at the exit of the series of 6As, on average ([1]; dITP instead of dGTP, 500 μM): doubled
deletion or insertion in the plasmids sequenced ([4]; 7 plasmids sequenced, minus A): No deletion or insertion is detected
times C is incorporated at the 1st site of misincorporation (T-135 matrix) [4, 6]: 4 times
times the I base is incorporated at the 1st site of misincorporation (T-135 matrix) [4, 6]: 3 times
order of substitution at the T sites of the matrix ([4]; absence of dATP): C>>I>>T
fidelity of the HIV-1 reverse transcriptase / profile of mutations ([4]; absence of dATP): increased
mutation rate ([4]; in vitro, absence of dATP, dITP instead of dGTP): decreases the mutation rate
plasmids mutated at least on the first site at which A is requested [4, 7]: 4 plasmids
plasmids mutated on at least the first three sites [4, 7]: 3 plasmids
plasmids mutated on the first two sites [4, 7]: one
number of T:I pairings [4, 8]: three
number of T:T pairings [4, 8]: one
number of T:C mismatches, all mismatches whatever their position ([4]; sequenced plasmids, minus A): eight
termination rate with the analog compared to the normal dNTP [2]: increases in the termination rates of the sites located before the incorporation of a dITP

O=c1ccn([C@H]2C[C@H](O)[C@@H](COP(=O)(O)OP(=O)(O)OP(=O)(O)O)O2)c(=O)[nH]1 [dUTP]
error rate at the first misincorporation site opposite T-135 after 10 min [3, 5]: 65%
error rate at the first misincorporation site opposite T-135 after 45 min ([3]; matrix +env, ppt primer, dNTPs 500 μM each, 45 min): ~77%
error rate at the first misincorporation site opposite T-135, start of the kinetics [3, 5]: 5%
termination rate with the analog compared to the normal dNTP, overall [1]: lower than with dTTP
decrease of the termination rate of most of the sites located before and after the incorporation of the analog (maximum) ([1]; dUTP instead of dTTP, 500 μM): ≤ 5%
number of sites with a decrease of more than half of their termination rate ([1]; dUTP instead of dTTP, 500 μM): Seven
T:U mismatch ([4]; 6 plasmids sequenced, minus A, dUTP instead of dTTP): No base U is incorporated
fidelity of the HIV-1 reverse transcriptase / profile of mutations ([4]; absence of dATP): only slightly modifies the profile and the specificity of the mutations
plasmids without any mutations on the Sph I and Nco I sites ([4]; of 36 plasmids, minus A): 15 plasmids
plasmids with at least two mutations ([4]; of 36 plasmids, minus A, Sph I and Nco I digestion): 21 plasmids
number of T:C mismatches, all mismatches whatever their position ([4]; sequenced plasmids, minus A): 6
number of T:G mismatches, all mismatches whatever their position ([4]; sequenced plasmids, minus A): 17
termination rate with the analog compared to the normal dNTP [2]: significantly increases the termination rate of most of the sites which precede the incorporation of the dUMP
